Source: ChEMBL document CHEMBL4261492, “Synthesis and in vitro study of novel borneol derivatives as potent inhibitors of the influenza A virus” (Medchemcomm, 2017)

Tests used:
[1] = in vitro; details: dog, MDCK cells, Ratio CC50/EC50
[2] = (§1) Cytotoxicity against MDCK cells after 48 hrs by MTT assay; assay type: cell-based, Canis lupus familiaris; details: dog, MDCK cells
[3] = test system: Influenza A virus; assay: microbe, parasite or virus in culture; details: A/Puerto Rico/8/1934(H1N1), MDCK
[4] = test system: MDCK; assay: as §1; assay type: cell-based, Canis lupus familiaris; details: dog, mdck, 48 h
[5] = test system: Influenza A virus; details: mdck

| Compound | selectivity ratio [1] | CC50 at 48 h [2] [µM] | IC50 [3] [µM] | CC50 [4] [µM] | IC50 [5] [µM] |
| --- | --- | --- | --- | --- | --- |
| CN1CCN(CC(=O)O[C@@H]2C[C@@H]3CC[C@@]2(C)C3(C)C)CC1 | 14 | 103 | 7.1 | – | – |
| CC1CCN(CCC(=O)O[C@@H]2C[C@@H]3CC[C@@]2(C)C3(C)C)CC1 | 4 | – | 15.3 | 56.4 | – |
| CC1(C)[C@H]2CC[C@]1(C)[C@H](OC(=O)CCN1CCCC1)C2 | 9 | – | 14.3 | 125 | – |
| CC1(C)[C@H]2CC[C@]1(C)[C@@H](OC(=O)CN1CCOCC1)C2 | – | – | 73.7 | > 534 | – |
| CCOC(=O)CN1CCOCC1 | – | – | 983 | > 1730 | – |
| CC1(C)[C@H]2CC[C@]1(C)[C@@H](O)C2 (stereo in doubt; 22) | – | – | – | > 974 | > 974 |
| CC1(C)[C@H]2CC[C@]1(C)[C@H](OC(=O)CN1CCCC1)C2 | 9 | – | 34 | 302 | – |
| CC1(C)[C@H]2CC[C@]1(C)[C@H](OC(=O)CCN1CCNCC1)C2 | 2 | – | 6.8 | 12.6 | – |
| CC1(C)[C@H]2CC[C@]1(C)[C@H](OC(=O)CN1CCOCC1)C2 | 82 | – | 7.1 | 580 | – |
| CC1(C)[C@H]2CC[C@]1(C)[C@H](OC(=O)CN1CCCCC1)C2 | 9 | – | 15.1 | 138 | – |
| CN1CCN(CCC(=O)O[C@@H]2C[C@@H]3CC[C@@]2(C)C3(C)C)CC1 | 25 | – | 1.9 | 48.1 | – |
| CCN1CCN(CCC(=O)O[C@@H]2C[C@@H]3CC[C@@]2(C)C3(C)C)CC1 | 12 | – | 8.4 | 105 | – |
| CC1(C)[C@H]2CC[C@]1(C)[C@@H](OC(=O)CCN1CCOCC1)C2 | 65 | – | 7.8 | 508 | – |
| CC(N)C12CC3CC(CC(C3)C1)C2 (configuration not stated) [RIMANTADINE] | 5 | – | 67 | – | – |
| CCCCN(CCCC)CC(=O)O[C@@H]1C[C@@H]2CC[C@@]1(C)C2(C)C | – | – | > 34.1 | 69.3 | – |
| CC1(C)[C@H]2CC[C@]1(C)[C@H](OC(=O)CCN1CCOCC1)C2 | 45 | – | 12.2 | 552 | – |
| COC(=O)CN1CCOCC1 | – | – | > 1890 | > 1890 | – |
| CC1CCN(CC(=O)O[C@@H]2C[C@@H]3CC[C@@]2(C)C3(C)C)CC1 | 9 | – | 10.2 | 93.9 | – |
| CCOC(=O)N1CCN(CC(=O)O[C@@H]2C[C@@H]3CC[C@@]2(C)C3(C)C)CC1 | 1 | – | 683 | > 852 | – |
| NC12CC3CC(CC(C3)C1)C2 [AMANTADINE] | 4 | – | 64.2 | – | – |
| CCCCN(CCCC)CCC(=O)O[C@@H]1C[C@@H]2CC[C@@]1(C)C2(C)C | 6 | – | 7.1 | 41.8 | – |
| CCN1CCN(CC(=O)O[C@@H]2C[C@@H]3CC[C@@]2(C)C3(C)C)CC1 | 23 | 100 | 4.4 | – | – |
| CC1(C)[C@H]2CC[C@]1(C)[C@@H](O)C2 (stereo in doubt; 1) | – | – | – | > 2140 | – |
| NC(=O)c1ncn([C@@H]2O[C@H](CO)[C@@H](O)[C@H]2O)n1 [RIBAVIRIN] | > 81 | – | 24.6 | > 2000 | – |
| CCOC(=O)N1CCN(CCC(=O)O[C@@H]2C[C@@H]3CC[C@@]2(C)C3(C)C)CC1 | 2 | – | > 98.4 | 150 | – |
| CC1(C)[C@H]2CC[C@]1(C)[C@H](OC(=O)CN1CCNCC1)C2 | 16 | 51.6 | 3.2 | – | – |
| CCOC(=O)C1=C[C@@H](OC(CC)CC)[C@H](NC(C)=O)[C@@H](N)C1 [OSELTAMIVIR] | – | – | – | 160 | – |
| CC1(C)[C@H]2CC[C@]1(C)[C@H](OC(=O)CCN1CCCCC1)C2 | – | – | 7.8 | 69.6 | – |
